Key:
Crocker sarcoma (Sa-180) = assay: Growth inhibition of Crocker sarcoma (Sa-180) in mice; assay type: in vivo; conditions: intraperitoneally, tumor weight vs control
Description: The growth inhibition of Crocker sarcoma (Sa-180) in mice.
For these experiments three-months old mice of about 25 g in weight were used. Each was inoculated with mouse sarcoma (Sa-180) and then they were divided into groups: a group of 10 control mice, and two to four test groups of 7 mice each.
The compounds to be investigated were administered intraperitoneally in appropriate doses after previous determination of maximum tolerance dose.
The percent difference between the mean weight of tumors isolated from control and test mice was accepted as a criterion for the evaluation of antineoplastic activity of the compounds, taking into account the toxic effects.
After doses of between 0.2-0.8 mg/kg the percent of inhibition was 44-86% respectively. Similarly, for the preparation allocated the code number C-934, i.e. 1-nitro-9-(hydroxybutylamino)acridine hydrochloride, after doses of between 0.2-0.4 mg/kg percent of inhibition was 45-60 % respectively.

Acute toxicity in mice = assay type: in vivo; conditions: intraperitoneally
Description: The acute, subacute, and long-term toxicity were studied in rats and rabbits (orally and intraperitoneally) and in mice (intraperitoneally).

Acute toxicity in rats = conditions: rat, in vivo, iv, intravenously
[1] = Acute toxicity in rabbits; conditions: rabbit, in vivo, route not given
Description: (§1) Pharmacological examination of the compound C-857 was carried out in mice, rats and rabbits. The acute, subacute, and long-term toxicity were studied in rats and rabbits (orally and intraperitoneally) and in mice (intraperitoneally). […] In the subacute toxicity studies (3 weeks) 1/60 and 1/120 of LD50 were considered; in the long-term toxicity evaluations (3 months) - 1/200 and 1/400 of LD50.

[2] = General pharmacological examination (circulatory, spasmolytic, central nervous system); assay type: in vivo, mice, rats and rabbits
Description: as §1
(§2) In a dose corresponding to 1/2 of LD50 it inhibits the spontaneous mobility and shortens hexobarbital anaesthesia. […] Its immunosuppresive action measured in contact allergy tests, local transplant-host reaction tests and post adjuvant multiarticular inflammation is minimal and appears only after the total dose corresponding to 1/5 of LD50.

[3] = Immunosuppressive action (contact allergy, local transplant-host reaction, post adjuvant multiarticular inflammation tests); assay type: in vivo; conditions: appears only after the total dose corresponding to 1/5 of LD50
Description: as §2

[4] = Subacute toxicity studies (3 weeks); assay type: in vivo, mice, rats and rabbits
Description: as §1
About 15-40 % of total number of mice died after a dose of 1/120 of LD50. The increase in the number of leucocytes (particularly in rabbits) and decrease in relative number of lymphocytes were observed. However, no changes in the number of red cells were found. […] The preparation C-857 induced some drop of the urine level in rabbits.

[5] = Long-term toxicity evaluations (3 months); assay type: in vivo, mice, rats and rabbits
Description: as §1
The preparation C-857 was found not to change the spleen-liver index.
No changes of urea and creatinine content were found.

[6] = test system: cells forming colonies in marrow; design: species or system mice; conditions: mouse, in vivo
Description: The effect of action of compound C-857 is similar to that of Bleomicine which is non-toxic for marrow.

[7] = Vomiting effect in pigeons; assay type: in vivo
[8] = dose corresponding to 1/2 of LD50
[9] = intravenously, doses increasing to 20 mg/kg

## Cl.O=[N+]([O-])c1cccc2nc3ccccc3c(NCCO)c12 [Example C-857, 1-nitro-9-(2-hydroxyethylamino)-acridine hydrochloride]
Crocker sarcoma (Sa-180); doses of between 0.2-0.8 mg/kg
  percent of inhibition: 44-86%
Acute toxicity in mice
  maximal tolerated dose, LD10: 2.5 mg/kg
Acute toxicity in mice; mouse, in vivo, ip
  LD50: 10.6 mg/kg
Acute toxicity in rats
  LD50: 9.2 mg/kg
[1]
  LD50: 11.4 mg/kg
[2]; [8]
  hexobarbital anaesthesia: shortens
  spontaneous mobility: inhibits
[2]; in vivo
  analgestic or anti-conclusive activity: does not show any
  effect on central nervous system: weak and irregular
[2]; [9]
  effect on the circulatory system: did not exert any significant effect
  spasmolytic action: weak
[3]
  immunosuppresive action: minimal
[4]; 3 weeks, 1/60 and 1/120 of LD50
  effects observed in the subacute toxicity investigations: moult, dyspndea, lack of thirst, diarrhoea, and loss of body weight
[4]; mice, dose of 1/120 of LD50, subacute
  total number of mice died: 15-40%
[4]; rabbits, subacute
  urine level: some drop
[4]; subacute
  Liver and kidney function tests: no pathological abnormalities
  histologic studies, findings: nectrotic inflammation of the liver capsule and peritoneum of intestine wall
  histologic studies, interneal organs (liver, kidney, thymus gland): No pathological abnormalities
  number of red cells: no changes
  relative number of lymphocytes: decrease
[4]; subacute, particularly in rabbits
  number of leucocytes: increase
[5]; 3 months, 1/200 and 1/400 of LD50
  general changes in long-term toxicity observation: decrease in physical activity, lack of thirst or occasional diarrhoea
[5]; administrated intraperitoneally
  local action: locally irritating action
[5]; in rabbits and rats
  leucocytes (hematologic studies): leucocytosis
  relative content of eosinophis: decrease
[5]; in rabbits, hematologic studies
  value of hematocrit: decrease
[5]; in vivo
  activity of AspAT and ALAT enzymes: no changes
  activity of alkaline phosphatase: Slight changes
  urea and creatinine content: No changes
[5]; long-term
  changes in liver and kidneys: Insignificant changes
  changes in thymus gland and intestine: no changes
  spleen-liver index: not to change
[6]
  myclo- toxic effect on cells forming colonies in marrow: not to produce myclo- toxic effect
[7]
  vomiting effect: did not exert vomiting effect

## Cl.O=[N+]([O-])c1cccc2nc3ccccc3c(NCCCCO)c12 [Example C-934, 1-nitro-9(4-hydroxybutylamino)acridine hydrochloride]
Crocker sarcoma (Sa-180); doses of between 0.2-0.4 mg/kg
  percent of inhibition: 45-60%

From patent EP0038572A1, “1-Nitro-9-hydroxyalkylaminoacridines or their salts” (priority 1980, dated 1981)
